Test results as given in US9657057B2, “Dipeptide and tripeptide epoxy ketone protease inhibitors” (Onyx Therapeutics, Inc., priority 2013, dated 2017).
≈ marks a conversion by molar mass, not a printed value. Where “and” joins values, the source holds several entries; their conditions need not be identical. Equal entries are not always repeated.

Experiments:
[1] = Solubility pH 7; format: physicochemical; conditions: pH 7, aqueous buffer
[2] = target: i20S (20S immunoproteasome) (Homo sapiens, UniProt P20618+P28062); assay: 20S proteasome assay, chymotrypsin-like activity (LLVY), i20S; format: biochemical; conditions: LLVY i20S Hu 1 h CONT: IC50 (nM), succinyl-Leu-Leu-Val-Tyr-AMC
Description: (§1) Assay buffer consisted of TE buffer [20 mmol/L Tris (pH 8.0), 0.5 mmol/L EDTA] with (20S) or without (cell lysate) 0.03% SDS. Reactions were initiated by enzyme or lysate addition and monitored for AMC product formation at 27jC with a plate-based spectofluorometer (Tecan).

[3] = target: c20S (constitutive 20S proteasome) (Homo sapiens, UniProt P20618+P28074); assay: 20S proteasome assay, chymotrypsin-like activity (LLVY), c20S; format: biochemical; conditions: LLVY c20S Hu 1 h CONT: IC50 (nM), succinyl-Leu-Leu-Val-Tyr-AMC
Description: as §1

[4] = target: T1, LMP7 (Homo sapiens, UniProt P20618+P28062); assay: ProCISE proteasome subunit assay, LMP7; format: biochemical; conditions: MOLT4 lysate Hu 1 h
T1 construct: endogenous in cells; host or cells: MOLT-4
Protocol: (§2) This assay was used to assess the inhibitory activity against each of LMP2, LMP7, MECL1, β1, β2, and β5. Briefly, test compounds were serially diluted in DMSO at 100× concentration, then diluted to 10× in aqueous hypotonic lysis buffer. Lysate from the human acute lymphoblastic leukemia cell line, MOLT-4, was treated for 1 hour at 25° C. with compound at a final 1× concentration. […] Following this, lysate was denatured in guanidine hydrochloride, and subunits bound to probe were isolated with streptavidin-conjugated sepharose beads. Individual subunits were probed with subunit-specific primary antibodies, followed by HRP-conjugated secondary antibodies. A chemiluminescent substrate was used to generate signal associated with HRP binding, which was detected on a plate reader. Luminescent signal was normalized to protein content, then, percent activity calculated relative to DMSO-treated controls to generate IC50 curves.

[5] = target: T2, β5 (Homo sapiens, UniProt P20618+P28074); assay: ProCISE proteasome subunit assay, β5; format: biochemical; conditions: MOLT4 lysate Hu 1 h
T2 construct: endogenous in cells; host or cells: MOLT-4
Protocol: as §2

| solubility [1] [µg/mL] | IC50 [2] [nM] | IC50 [3] | IC50 [4] [nM] | IC50 [5] [nM] | Structure (SMILES) |
| --- | --- | --- | --- | --- | --- |
| 2330 (≈ 4560 µM) | 558 | 1590 nM |  |  | COc1ccc(C[C@H](NC(=O)[C@H](C)NC(=O)CO)C(=O)N[C@@H](Cc2ccccc2)C(=O)[C@@]2(C)CO2)cc1 [Compound C-2008] |
| 300 (≈ 587 µM) | 414 | 1050 nM |  |  | COC(=O)N[C@H](C)C(=O)N[C@@H](Cc1ccc(OC)cc1)C(=O)N[C@@H](Cc1ccccc1)C(=O)[C@@]1(C)CO1 [Compound C-2010, Methyl ((R)-1-(((S)-3-(4-methoxyphenyl)-1-(((S)-1-((R)-2-methyloxiran-2-yl)-1-oxo-3-phenylpropan-2-yl)amino)-1-oxopropan-2-yl)amino)-1-oxopropan-2-yl)carbamate] |
| 3830 (≈ 7280 µM) | 86.9 | 262 nM |  |  | COc1ccc(C[C@H](NC(=O)[C@H](C)NC(=O)CCO)C(=O)N[C@@H](Cc2ccccc2)C(=O)[C@@]2(C)CO2)cc1 [Compound C-2012, (S)-2-((S)-2-(3-hydroxypropanamido)propanamido)-3-(4-methoxyphenyl)-N—((S)-1-((R)-2-methyloxiran-2-yl)-1-oxo-3-phenylpropan-2-yl)propanamide] |
| 316 (≈ 594 µM) | 332 | 579 nM |  |  | COCCC(=O)N[C@@H](C)C(=O)N[C@@H](Cc1ccc(OC)cc1)C(=O)N[C@@H](CC1CCCC1)C(=O)[C@@]1(C)CO1 [Compound C-2019, (S)—N—((S)-3-cyclopentyl-1-((R)-2-methyloxiran-2-yl)-1-oxopropan-2-yl)-3-(4-methoxyphenyl)-2-((S)-2-(3-methoxypropanamido)propanamido)propanamide] |
| 59.1 (≈ 111 µM) | 560 | 797 nM |  |  | CCOCC(=O)N[C@@H](C)C(=O)N[C@@H](Cc1ccc(OC)cc1)C(=O)N[C@@H](CC1CCCC1)C(=O)[C@@]1(C)CO1 [Compound C-2020, (S)—N—((S)-3-cyclopentyl-1-((R)-2-methyloxiran-2-yl)-1-oxopropan-2-yl)-2-((S)-2-(2-ethoxyacetamido)propanamido)-3-(4-methoxyphenyl)propanamide] |
| 44.1 (≈ 79.5 µM) | 2270 | 6030 nM |  |  | COc1ccc(C[C@H](NC(=O)[C@@H](C)NC(=O)c2oncc2C)C(=O)N[C@@H](CC2CCCC2)C(=O)[C@@]2(C)CO2)cc1 [Compound C-2024, N—((R)-1-(((S)-1-(((S)-3-cyclopentyl-1-((R)-2-methyloxiran-2-yl)-1-oxopropan-2-yl)amino)-3-(4-methoxyphenyl)-1-oxopropan-2-yl)amino)-1-oxopropan-2-yl)-4-methylisoxazole-5-carboxamide] |
| 144 (≈ 253 µM) | 569 | 289 nM |  |  | COc1ccc(C[C@H](NC(=O)[C@H](C)NC(=O)c2cnc(C)s2)C(=O)N[C@@H](CC2CCCC2)C(=O)[C@@]2(C)CO2)cc1 [Compound C-2025, N—((S)-1-(((S)-1-(((S)-3-cyclopentyl-1-((R)-2-methyloxiran-2-yl)-1-oxopropan-2-yl)amino)-3-(4-methoxyphenyl)-1-oxopropan-2-yl)amino)-1-oxopropan-2-yl)-2-methylthiazole-5-carboxamide] |
| 1.7 (≈ 2.88 µM) | 2580 | 3400 nM |  |  | COc1ccc(C[C@H](NC(=O)[C@@H](C)NC(=O)c2nc3ccccc3[nH]2)C(=O)N[C@@H](CC2CCCC2)C(=O)[C@@]2(C)CO2)cc1 [Compound C-2029, N—((R)-1-(((S)-1-(((S)-3-cyclopentyl-1-((R)-2-methyloxiran-2-yl)-1-oxopropan-2-yl)amino)-3-(4-methoxyphenyl)-1-oxopropan-2-yl)amino)-1-oxopropan-2-yl)-1H-benzo[d]imidazole-2-carboxamide] |
| 2.1 (≈ 3.57 µM) |  | 5140 nM and 2710 nM | 130 | 4860 | COc1ccc(C[C@H](NC(=O)[C@@H](C)NC(=O)C2=Cc3ccccc3C2)C(=O)N[C@@H](CC2CCCC2)C(=O)[C@@]2(C)CO2)cc1 [Compound C-2036, N—((R)-1-(((S)-1-(((S)-3-cyclopentyl-1-((R)-2-methyloxiran-2-yl)-1-oxopropan-2-yl)amino)-3-(4-methoxyphenyl)-1-oxopropan-2-yl)amino)-1-oxopropan-2-yl)-1H-indene-2-carboxamide] |
| 1.7 (≈ 2.89 µM) | 2520 | 3950 nM |  |  | COc1ccc(C[C@H](NC(=O)CNC(=O)C2=C(C)c3ccccc3C2)C(=O)N[C@@H](CC2CCCC2)C(=O)[C@@]2(C)CO2)cc1 [Compound C-2039, N-(2-(((S)-1-(((S)-3-cyclopentyl-1-((R)-2-methyloxiran-2-yl)-1-oxopropan-2-yl)amino)-3-(4-methoxyphenyl)-1-oxopropan-2-yl)amino)-2-oxoethyl)-3-methyl-1H-indene-2-carboxamide] |
| 65.9 (≈ 122 µM) | 1400 | 9800 nM |  |  | COc1ccc(C[C@H](NC(=O)[C@@H](C)NC(=O)c2ccno2)C(=O)N[C@@H](CC2CCCC2)C(=O)[C@@]2(C)CO2)cc1 [Compound C-2041, N—((R)-1-(((S)-1-(((S)-3-cyclopentyl-1-((R)-2-methyloxiran-2-yl)-1-oxopropan-2-yl)amino)-3-(4-methoxyphenyl)-1-oxopropan-2-yl)amino)-1-oxopropan-2-yl)isoxazole-5-carboxamide] |
| 130 (≈ 204 µM) | 1600 | 286 nM |  |  | COc1ccc(C[C@H](NC(=O)[C@H](CN2CCOCC2)NC(=O)c2cc(C)no2)C(=O)N[C@@H](CC2CCCC2)C(=O)[C@@]2(C)CO2)cc1 [Compound C-2044, N—((S)-1-(((S)-1-(((S)-3-cyclopentyl-1-((R)-2-methyloxiran-2-yl)-1-oxopropan-2-yl)amino)-3-(4-methoxyphenyl)-1-oxopropan-2-yl)amino)-3-morpholino-1-oxopropan-2-yl)-3-methylisoxazole-5-carboxamide] |
| 121 (≈ 204 µM) |  |  | 157 | 6630 | COc1ccc(C[C@H](NC(=O)[C@@H](C)NC(=O)[C@H]2CCc3[nH]ncc3C2)C(=O)N[C@@H](CC2CCCC2)C(=O)[C@@]2(C)CO2)cc1 [Compound C-2065, (S)—N—((R)-1-(((S)-1-(((S)-3-cyclopentyl-1-((R)-2-methyloxiran-2-yl)-1-oxopropan-2-yl)amino)-3-(4-methoxyphenyl)-1-oxopropan-2-yl)amino)-1-oxopropan-2-yl)-4,5,6,7-tetrahydro-1H-indazole-5-carboxamide] |
| 1460 (≈ 3050 µM) |  |  | 934 | 1930 | COc1ccc(C[C@H](NC(=O)[C@@H]2CC(=O)N2)C(=O)N[C@@H](Cc2ccccc2)C(=O)[C@@]2(C)CO2)cc1 [Compound C-3002, (S)—N—((S)-3-(4-methoxyphenyl)-1-(((S)-1-((R)-2-methyloxiran-2-yl)-1-oxo-3-phenylpropan-2-yl)amino)-1-oxopropan-2-yl)-4-oxoazetidine-2-carboxamide] |
| 1200 (≈ 2500 µM) |  |  | 513 | 1220 | COc1ccc(C[C@H](NC(=O)[C@H]2CC(=O)N2)C(=O)N[C@@H](Cc2ccccc2)C(=O)[C@@]2(C)CO2)cc1 [Compound C-3003, (R)—N—((S)-3-(4-methoxyphenyl)-1-(((S)-1-((R)-2-methyloxiran-2-yl)-1-oxo-3-phenylpropan-2-yl)amino)-1-oxopropan-2-yl)-4-oxoazetidine-2-carboxamide] |
